Reference: patent US20190169218A1, “AMPHIPATHIC COMPOUND HAVING NOVEL PENTA-SACCHARIDE HYDROPHILIC GROUP AND USE THEREOF” (Industry-University Cooperation Foundation Hanyang …, priority 2016, published 2019)

Assays:
[1] = target: T1, human β2 adrenergic receptor (β2AR) (Homo sapiens, UniProt P07550); assay: negative staining electron microscopy (EM) of purified β2AR
T1 construct: Flag; made in house
Experimental: Electron microscopy (EM) analysis was performed on β2ARs solubilized in PSAs and PSEs.
Specifically, electron microscopy (EM) analysis was performed as follows. Samples were prepared using a conventional negative staining protocol (see Peisley, A. et al., G Protein-Coupled Receptors in Drug Discovery: Methods and Protocols, Methods in Molecular Biology, 1335, 29-38 (2015)). Briefly, 3 μL of β2ARs purified in DDM or the novel amphipathic compounds (PSA-C11, PSE-C11 and PSE-C13) was added into a glow-discharged carbon-coated grid by pipetting and stained with 1% (w/v) uranyl formate. Imaging was performed by operating a Morgagni 268 (D) transmission electron microscope (FEI Company) at 100 kV at room temperature. Images were recorded with an Orius SC200W CCD camera (Gatan Inc.) at a 30,416×magnification.

[2] = tested on: leucine transporter (LeuT); assay: LeuT stability, [3H]-Leu binding by scintillation proximity assay (SPA); format: biochemical, Aquifex aeolicus; conditions: room temperature
Experimental: The ability of PSAs, PSEs or TPSs (TPS-A/E/ELs) to stabilize leucine transporter (LeuT), a membrane protein, was measured. LeuT purified by DDM was mixed with a solution containing each amphipathic compound, and the mixture was incubated at room temperature for 12 days. The activity of LeuT proteins was measured by scintillation proximity assay (SPA) using a ligand ([^3H]-Leu), and the concentration of PSAs, PSEs, TPSs or DDM was (a) CMC+0.04 wt %, or (b) CMC+0.2 wt %.
Specifically, LeuT stability measurement was performed in the following manner. According to the results of Example 6, PSA-C10, PSA-C11, PSE-C9, PSE-C11, and PSE-C13 were selected as the amphipathic compounds of PSAs and PSEs except for PSA-C9, and wild type leucine transporter (LeuT) was purified from Aquifex aeolicus using TPS-As, TPS-Es and TPS-EL, according to the method described in G. Deckert et al. (Nature 1998, 392, 353-358.). E. coli C41 (DE3) was transformed with a pET16b plasmid containing a gene construct encoding C-terminal 8×His-tagged LeuT, and thus LeuT was expressed in the form of a fusion protein having 8×His tags at the C-terminus in the transformed E. coli C41 (the expression plasmid was provided by Dr. E. Gouaux, Vollum Institute, Portland, Oreg., USA). Briefly, bacterial membranes containing LeuT were treated with 1.0 wt % DDM, and proteins were bound to Ni^2+-NTA resin (Life Technologies, Denmark). LeuT bound to the resin was eluted using a buffer solution containing 20 mM Tris-HCl (pH 8.0), 1 mM NaCl, 199 mM KCl, 0.05% DDM and 300 mM imidazole. Next, about 1.5 mg/mL of protein stock was diluted 10-fold in an equivalent buffer supplemented with TPS-As, TPS-Es, TPS-ELs, PSAs/PSEs (PSA-C10, PSA-C11, PSE-C9, PSE-C11 and PSE-C13) or DDM (control group) to a final concentration of CMC+0.04 wt % or CMC+0.2 wt % without DDM and imidazole. The protein samples were stored at room temperature and centrifuged at designated times. Protein activity was determined by measuring the degree of binding to [^3H]-Leu using scintillation proximity assay (SPA) (M. Quick et al., Proc. Natl, Acad. Sci. U.S.A. 2007, 104, 3603-3608.). Briefly, SPA was performed with 5 μL of each protein sample dissolved in a buffer containing 450 mM NaCl and each test compound. The SPA reaction was performed in the presence of 20 nM [^3H]-Leu and copper chelate (His-Tag) YSi beads (both were purchased from PerkinElmer, Denmark). The degree of binding to [^3H]-Leu was measured using a MicroBeta liquid scintillation counter (PerkinElmer).

[3] = target: T1, human β2 adrenergic receptor (β2AR); assay: bimane fluorescence spectrum of mBBr-β2AR solubilized in amphipathic compounds; conditions: 0.1 wt % compound
Experimental: The structural stability of monobromobimane-labeled β2ARs (mBBr-β2ARs) solubilized in PSAs and PSEs was evaluated in the presence of a high-affinity agonist BI (BI-167107).
Specifically, monobromobimane (mBBr)-labeled β2ARs (mainly labeled on Cys265) was used to measure changes in a fluorescence spectrum induced by a local structural change near transmembrane helix 6 (TM6) (see Yao, X. et al., Nat. Chem. Biol. 2006, 2, 417-422.). 0.5 μL of BI (agonist)-bound mBBr-β2ARs dissolved at a concentration of […] in 0.1 wt % DDM was diluted with 500 μL of a buffer solution containing 0.1 wt % of each of the novel amphipathic compounds (PSA-C11, PSE-C11 and PSE-C13). After incubation of the protein samples for 30 minutes, the spectrum of mBBr was measured and compared with the spectrum of mBBr-labeled receptors dissolved in 0.1 wt % DDM. The 370 nm excitation wavelength was used for bimane fluorescence, and the emission spectra were measured at 430 to 510 nm using a Spex FluoroMax-3 spectrometer (Jobin Yvon Inc.) at 0.5 nm s^−1 in 1-nm units, and the photon counting mode was set to a 4-nm emission bandwidth pass. mBBr-labeled β2ARs dissolved in DDM were used as a positive control group. Data is representative of three independent experiments.
The structural change and structural stability of mBBr-β2ARs by PSAs/PSEs and DDM according the presence or absence of a full agonist (isoproterenol, ISO) or the combination of ISO and a G-protein were measured. It is well known that a full agonist (e.g., BI) and the binding of a Gs-protein are simultaneously required for full activation of receptors (see Rasmussen, S. G. F. et al., Nature 2011, 469, 175-180.).
Specifically, G protein coupling experiments were performed using the following method. 0.5 μL of non-ligand mBBr-labeled receptors at a concentration of 50 μM was diluted with 500 μL of a buffer solution containing a 0.1 wt % amphipathic compound at room temperature for 15 minutes. After dilution, a dilution containing the receptors at a final concentration of 50 nM was obtained. 2 μM isoproterenol (ISO) was added to the diluted solution, and the solution was incubated for an additional 15 minutes. 250 nM Gs-protein was additionally added to the solution, and then the protein samples included in the solution were incubated at room temperature for an additional 20 minutes. The 370 nm excitation wavelength was used for bimane fluorescence, and the emission spectra were measured at 430 to 510 nm using a Spex FluoroMax-3 spectrometer (Jobin Yvon Inc.) at 0.5 nm s^−1 in 1-nm units, and the photon counting mode was set to a 4-nm emission bandwidth pass. The same experiment was repeated using 0.1 wt % DDM, which was used as a positive control. Data is representative of three independent experiments.

[4] = in the presence of agonist BI (BI-167107)
[5] = in the presence of full agonist isoproterenol (ISO)

T1 sequence (P07550 whole entry): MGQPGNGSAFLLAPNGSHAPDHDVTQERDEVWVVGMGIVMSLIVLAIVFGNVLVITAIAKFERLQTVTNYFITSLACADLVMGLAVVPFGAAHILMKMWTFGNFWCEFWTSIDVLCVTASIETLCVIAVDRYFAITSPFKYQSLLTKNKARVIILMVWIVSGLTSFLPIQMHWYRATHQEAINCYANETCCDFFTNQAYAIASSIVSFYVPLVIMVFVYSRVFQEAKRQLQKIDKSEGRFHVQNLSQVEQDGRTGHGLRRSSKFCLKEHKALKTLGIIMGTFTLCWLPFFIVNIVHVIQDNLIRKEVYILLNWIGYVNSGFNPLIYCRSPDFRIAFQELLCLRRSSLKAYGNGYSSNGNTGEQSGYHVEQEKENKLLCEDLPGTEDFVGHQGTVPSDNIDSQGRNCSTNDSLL

Structure (SMILES) | agglutinated proteins in negative staining EM images of β2AR [1] | maintenance of LeuT activity during 12 days of incubation ([2]; CMC+0.04 wt %) | maintenance of LeuT activity during 12 days of incubation ([2]; CMC+0.2 wt %) | LeuT transporter activity retained after 12 days of incubation ([2]; CMC+0.2 wt %, 12 days) [%] | bimane fluorescence spectrum of mBBr-β2AR [3, 4] | bimane fluorescence spectrum of mBBr-β2AR [3, 5]
CCCCCCCCCCCCO[C@@H]1O[C@H](CO)[C@@H](O[C@H]2O[C@H](CO)[C@@H](O)[C@H](O)[C@H]2O)[C@H](O)[C@H]1O [DDM, n-dodecyl-β-D-maltopyranoside, reference compound] | many agglutinated proteins were observed | – | – | – | – | –
CCCCCCCCCCCOCC(COCCCCCCCCCCC)O[C@@H]1OC(CO[C@@H]2OC(CO)[C@@H](O)C(O)C2O)[C@@H](O[C@@H]2OC(CO)[C@@H](O)C(O)C2O)C(O[C@@H]2OC(CO)[C@@H](O)C(O)C2O)C1O[C@@H]1OC(CO)[C@@H](O)C(O)C1O (stereo partly drawn) [PSE-C11] | the agglutinated proteins were hardly observed | did not show any appreciable decrease in protein activity | completely preserved | 100 | very similar to that obtained from the receptors dissolved in DDM | spectra similar to the receptor solubilized by DDM
CCCCCCCCOCC(COCCCCCCCC)(COCCCCCCCC)CO[C@@H]1OC(CO[C@@H]2OC(CO)[C@@H](O)C(O)C2O)[C@@H](O[C@@H]2OC(CO)[C@@H](O)C(O)C2O)C(O[C@@H]2OC(CO)[C@@H](O)C(O)C2O)C1O[C@@H]1OC(CO)[C@@H](O)C(O)C1O (stereo partly drawn) [TPS-E8] | – | remained intact | completely preserved | – | – | –
CCCCCCCCCCCCCOCC(COCCCCCCCCCCCCC)O[C@@H]1OC(CO[C@@H]2OC(CO)[C@@H](O)C(O)C2O)[C@@H](O[C@@H]2OC(CO)[C@@H](O)C(O)C2O)C(O[C@@H]2OC(CO)[C@@H](O)C(O)C2O)C1O[C@@H]1OC(CO)[C@@H](O)C(O)C1O (stereo partly drawn) [PSE-C13] | the amount of the agglutinated proteins was small | did not show any appreciable decrease in protein activity | – | – | somewhat different bimane fluorescence spectrum compared to the receptors dissolved in DDM | –
CCCCCCCCCCCC(CCCCCCCCCCC)CO[C@@H]1OC(CO[C@@H]2OC(CO)[C@@H](O)C(O)C2O)[C@@H](O[C@@H]2OC(CO)[C@@H](O)C(O)C2O)C(O[C@@H]2OC(CO)[C@@H](O)C(O)C2O)C1O[C@@H]1OC(CO)[C@@H](O)C(O)C1O (stereo partly drawn) [PSA-C11] | the agglutinated proteins were hardly observed | – | – | – | very similar to that obtained from the receptors dissolved in DDM | spectra similar to the receptor solubilized by DDM
